# ChEMBL document CHEMBL1154642, “Synthesis and biological evaluation of heterocyclic ring-substituted maslinic acid derivatives as novel inhibitors of protein tyrosine phosphatase 1B” (Bioorg Med Chem Lett, 2009)
# Key:
# [1] = biological target: T1, Tyrosine-protein phosphatase non-receptor type 1 (Homo sapiens, UniProt P18031); experiment: Inhibition of GST-tagged human PTP 1B
# T1 sequence (P18031 whole entry): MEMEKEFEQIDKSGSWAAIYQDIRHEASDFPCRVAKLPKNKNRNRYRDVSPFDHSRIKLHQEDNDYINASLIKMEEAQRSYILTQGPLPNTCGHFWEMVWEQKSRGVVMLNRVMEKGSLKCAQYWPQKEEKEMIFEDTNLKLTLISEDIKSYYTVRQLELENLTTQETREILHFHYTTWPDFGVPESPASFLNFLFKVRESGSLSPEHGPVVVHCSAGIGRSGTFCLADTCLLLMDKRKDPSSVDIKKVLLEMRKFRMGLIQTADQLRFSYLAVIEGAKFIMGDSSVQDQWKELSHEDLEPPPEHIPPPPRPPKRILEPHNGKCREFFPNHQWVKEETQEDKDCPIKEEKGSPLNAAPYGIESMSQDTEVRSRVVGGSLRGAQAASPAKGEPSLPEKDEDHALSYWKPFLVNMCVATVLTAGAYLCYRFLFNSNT
# [2] = species on record: Homo sapiens; experiment: Selectivity, ratio of IC50 for GST-tagged human TCPTP to IC50 for GST-tagged human PTP 1B
# [3] = biological target: T2, Tyrosine-protein phosphatase non-receptor type 2 (Homo sapiens, UniProt P17706); experiment: Inhibition of GST-tagged human TCPTP
# T2 sequence (P17706 whole entry): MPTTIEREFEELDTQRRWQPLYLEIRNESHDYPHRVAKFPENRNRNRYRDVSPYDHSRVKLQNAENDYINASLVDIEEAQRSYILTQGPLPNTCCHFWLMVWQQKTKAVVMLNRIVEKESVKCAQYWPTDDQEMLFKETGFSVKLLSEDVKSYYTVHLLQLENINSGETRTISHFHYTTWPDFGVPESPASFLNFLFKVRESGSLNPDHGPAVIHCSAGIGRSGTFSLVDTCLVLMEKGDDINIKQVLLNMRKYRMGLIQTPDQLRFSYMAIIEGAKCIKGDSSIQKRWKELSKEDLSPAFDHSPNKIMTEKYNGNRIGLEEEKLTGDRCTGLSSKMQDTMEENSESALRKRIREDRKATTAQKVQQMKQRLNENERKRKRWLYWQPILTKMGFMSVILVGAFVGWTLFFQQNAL
# [4] = biological target: T3, Tyrosine-protein phosphatase non-receptor type 11 (Homo sapiens, UniProt Q06124); experiment: Inhibition of GST-tagged human SHP2
# T3 sequence (Q06124 whole entry): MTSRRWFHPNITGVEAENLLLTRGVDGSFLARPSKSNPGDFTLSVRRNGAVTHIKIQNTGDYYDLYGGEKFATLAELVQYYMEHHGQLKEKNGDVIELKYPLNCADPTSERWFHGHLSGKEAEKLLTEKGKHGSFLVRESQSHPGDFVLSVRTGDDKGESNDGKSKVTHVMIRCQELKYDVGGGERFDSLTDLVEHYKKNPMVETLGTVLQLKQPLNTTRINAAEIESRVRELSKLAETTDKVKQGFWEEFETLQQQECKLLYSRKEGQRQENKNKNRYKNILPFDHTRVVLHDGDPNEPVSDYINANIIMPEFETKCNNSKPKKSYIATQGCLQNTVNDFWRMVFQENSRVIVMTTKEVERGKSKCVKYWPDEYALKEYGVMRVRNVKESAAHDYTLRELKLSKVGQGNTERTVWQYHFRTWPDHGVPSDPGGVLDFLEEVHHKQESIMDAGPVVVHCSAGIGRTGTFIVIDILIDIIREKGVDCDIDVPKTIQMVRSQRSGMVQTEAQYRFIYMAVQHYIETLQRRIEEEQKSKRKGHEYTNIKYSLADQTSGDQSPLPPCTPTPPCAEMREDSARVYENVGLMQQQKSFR
# [5] = biological target: Tyrosine-protein phosphatase non-receptor type 6 (Homo sapiens, UniProt P29350); experiment: Inhibition of GST-tagged human SHP1
# [6] = biological target: Receptor-type tyrosine-protein phosphatase F (Homo sapiens, UniProt P10586); experiment: Inhibition of GST-tagged human LAR
# [7] = Inhibition of glycogen phosphorylase
# Sequence of Receptor-type tyrosine-protein phosphatase F (P10586 whole entry): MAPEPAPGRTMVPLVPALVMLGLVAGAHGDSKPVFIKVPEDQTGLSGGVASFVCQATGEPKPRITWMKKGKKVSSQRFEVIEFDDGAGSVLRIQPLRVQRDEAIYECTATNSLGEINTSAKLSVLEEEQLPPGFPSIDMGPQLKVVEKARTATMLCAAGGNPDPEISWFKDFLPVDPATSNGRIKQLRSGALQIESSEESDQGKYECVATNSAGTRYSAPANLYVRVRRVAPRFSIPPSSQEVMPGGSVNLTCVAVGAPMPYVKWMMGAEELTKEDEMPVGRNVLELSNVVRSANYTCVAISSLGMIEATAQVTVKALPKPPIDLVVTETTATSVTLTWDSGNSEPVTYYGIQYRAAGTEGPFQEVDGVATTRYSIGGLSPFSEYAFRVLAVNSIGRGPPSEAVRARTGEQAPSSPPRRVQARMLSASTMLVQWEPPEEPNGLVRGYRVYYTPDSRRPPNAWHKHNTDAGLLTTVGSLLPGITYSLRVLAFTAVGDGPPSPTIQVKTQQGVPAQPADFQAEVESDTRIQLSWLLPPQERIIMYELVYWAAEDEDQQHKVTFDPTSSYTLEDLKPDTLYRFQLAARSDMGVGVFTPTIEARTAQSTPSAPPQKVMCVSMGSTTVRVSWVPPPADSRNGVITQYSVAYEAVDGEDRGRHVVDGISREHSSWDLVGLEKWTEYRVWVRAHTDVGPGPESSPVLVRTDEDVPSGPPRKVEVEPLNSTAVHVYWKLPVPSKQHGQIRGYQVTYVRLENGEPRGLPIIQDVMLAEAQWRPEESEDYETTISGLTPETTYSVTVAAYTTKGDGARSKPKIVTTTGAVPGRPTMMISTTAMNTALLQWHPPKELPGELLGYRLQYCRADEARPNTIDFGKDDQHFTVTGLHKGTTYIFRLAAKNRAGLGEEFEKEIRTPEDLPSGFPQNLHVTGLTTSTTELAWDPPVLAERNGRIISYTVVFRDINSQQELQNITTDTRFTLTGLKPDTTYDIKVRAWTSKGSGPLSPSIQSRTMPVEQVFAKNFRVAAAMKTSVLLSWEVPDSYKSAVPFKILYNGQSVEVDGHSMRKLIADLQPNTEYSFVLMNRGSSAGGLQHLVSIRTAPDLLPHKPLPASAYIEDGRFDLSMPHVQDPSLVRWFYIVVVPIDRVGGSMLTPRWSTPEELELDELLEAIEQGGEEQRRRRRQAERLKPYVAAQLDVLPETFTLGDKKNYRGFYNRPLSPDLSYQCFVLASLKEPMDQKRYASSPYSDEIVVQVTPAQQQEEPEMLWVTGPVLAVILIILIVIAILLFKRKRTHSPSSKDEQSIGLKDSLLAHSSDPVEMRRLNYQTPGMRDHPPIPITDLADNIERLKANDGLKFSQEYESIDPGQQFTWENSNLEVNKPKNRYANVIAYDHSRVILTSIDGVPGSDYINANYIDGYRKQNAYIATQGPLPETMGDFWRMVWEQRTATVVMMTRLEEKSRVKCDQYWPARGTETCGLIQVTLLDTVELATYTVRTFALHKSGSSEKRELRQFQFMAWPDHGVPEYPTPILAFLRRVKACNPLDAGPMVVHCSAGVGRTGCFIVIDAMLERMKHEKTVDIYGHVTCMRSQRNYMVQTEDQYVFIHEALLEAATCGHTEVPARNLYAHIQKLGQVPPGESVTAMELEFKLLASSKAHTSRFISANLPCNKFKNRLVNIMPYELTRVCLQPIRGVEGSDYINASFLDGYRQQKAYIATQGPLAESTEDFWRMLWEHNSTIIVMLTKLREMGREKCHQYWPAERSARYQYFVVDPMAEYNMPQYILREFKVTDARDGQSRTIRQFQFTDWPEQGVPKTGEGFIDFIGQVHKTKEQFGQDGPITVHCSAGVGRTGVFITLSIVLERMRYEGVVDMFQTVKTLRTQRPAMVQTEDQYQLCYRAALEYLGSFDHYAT
# Sequence of Tyrosine-protein phosphatase non-receptor type 6 (P29350 whole entry): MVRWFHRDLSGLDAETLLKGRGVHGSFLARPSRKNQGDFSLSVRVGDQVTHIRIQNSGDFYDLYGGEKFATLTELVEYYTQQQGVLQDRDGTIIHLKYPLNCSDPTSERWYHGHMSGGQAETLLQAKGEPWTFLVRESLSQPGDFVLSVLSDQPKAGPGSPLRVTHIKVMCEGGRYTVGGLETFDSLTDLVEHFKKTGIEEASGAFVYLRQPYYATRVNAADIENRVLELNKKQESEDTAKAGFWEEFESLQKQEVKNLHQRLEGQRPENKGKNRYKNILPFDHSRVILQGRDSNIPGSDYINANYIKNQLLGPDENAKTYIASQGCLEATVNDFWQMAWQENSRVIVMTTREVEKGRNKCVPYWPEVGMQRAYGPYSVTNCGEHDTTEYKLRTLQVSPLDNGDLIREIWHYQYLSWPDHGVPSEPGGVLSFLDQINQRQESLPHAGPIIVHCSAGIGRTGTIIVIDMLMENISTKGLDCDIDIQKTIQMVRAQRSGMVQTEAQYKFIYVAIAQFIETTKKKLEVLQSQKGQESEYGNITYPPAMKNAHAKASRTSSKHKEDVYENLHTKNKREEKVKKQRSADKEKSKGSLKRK
Structure (SMILES),IC50 [1],Ratio IC50 [2],IC50 [3],IC50 [4],IC50 [5],IC50 [6],IC50 [7]
O=C(O)C(=O)c1ccc(OCc2ccc(COc3ccc(C(=O)C(=O)O)cc3)cc2)cc1,3.89 µM,1.6,6.24 µM,–,–,–,–
CCCCCC(=O)n1ncc2c1C(C)(C)[C@@H]1CC[C@]3(C)[C@H](CC=C4[C@@H]5CC(C)(C)CC[C@]5(C(=O)O)CC[C@]43C)[C@@]1(C)C2,1.75 µM,3.2,5.56 µM,–,–,–,–
CC1(C)CC[C@]2(C(=O)O)CC[C@]3(C)C(=CC[C@@H]4[C@@]5(C)Cc6cnn(C(=O)c7ccncc7)c6C(C)(C)[C@@H]5CC[C@]43C)[C@@H]2C1,0.81 µM,4.5,3.62 µM,–,–,–,–
CC1(C)CC[C@]2(C(=O)O)CC[C@]3(C)C(=CC[C@@H]4[C@@]5(C)Cc6nc7ccccc7nc6C(C)(C)[C@@H]5CC[C@]43C)[C@@H]2C1,1.43 µM,4.1,5.88 µM,> 40 µM,> 40 µM,> 40 µM,–
CC1(C)CC[C@]2(C(=O)O)CC[C@]3(C)C(=CC[C@@H]4[C@@]5(C)C[C@@H](O)[C@@H](O)C(C)(C)[C@@H]5CC[C@]43C)[C@@H]2C1,14.3 µM,–,–,–,–,–,–
CC1(C)CC[C@]2(C(=O)O)CC[C@]3(C)C(=CC[C@@H]4[C@@]5(C)C[C@@H](O)[C@H](O)C(C)(C)[C@@H]5CC[C@]43C)[C@@H]2C1 [MASLINIC ACID],5.93 µM,3.3,19.5 µM,> 40 µM,> 40 µM,> 40 µM,28 µM
CC1(C)CC[C@]2(C(=O)O)CC[C@]3(C)C(=CC[C@@H]4[C@@]5(C)Cc6cnn(C(=O)c7cccnc7)c6C(C)(C)[C@@H]5CC[C@]43C)[C@@H]2C1,0.64 µM,6.9,4.39 µM,–,–,–,–
CC1(C)CC[C@]2(C(=O)O)CC[C@]3(C)C(=CC[C@@H]4[C@@]5(C)Cc6cnn(-c7ccccc7)c6C(C)(C)[C@@H]5CC[C@]43C)[C@@H]2C1,1.39 µM,2.7,3.8 µM,> 40 µM,> 40 µM,> 40 µM,–

# Further lines, results first:
IC50 [1],Ratio IC50 [2],IC50 [3],IC50 [4],IC50 [5],IC50 [6],IC50 [7],Structure (SMILES)
1.78 µM,3.1,5.51 µM,–,–,–,–,CC1(C)CC[C@]2(C(=O)O)CC[C@]3(C)C(=CC[C@@H]4[C@@]5(C)Cc6cnc(N)nc6C(C)(C)[C@@H]5CC[C@]43C)[C@@H]2C1
1.92 µM,3.4,6.44 µM,> 40 µM,> 40 µM,> 40 µM,–,CC1(C)CC[C@]2(C(=O)O)CC[C@]3(C)C(=CC[C@@H]4[C@@]5(C)Cc6sc(N)nc6C(C)(C)[C@@H]5CC[C@]43C)[C@@H]2C1
0.61 µM,2.6,1.6 µM,–,–,–,–,CC1(C)CC[C@]2(C(=O)O)CC[C@]3(C)C(=CC[C@@H]4[C@@]5(C)Cc6c([nH]c7ccccc67)C(C)(C)[C@@H]5CC[C@]43C)[C@@H]2C1
1.65 µM,3.6,5.99 µM,> 40 µM,> 40 µM,> 40 µM,–,CC1(C)CC[C@]2(C(=O)O)CC[C@]3(C)C(=CC[C@@H]4[C@@]5(C)Cc6cn[nH]c6C(C)(C)[C@@H]5CC[C@]43C)[C@@H]2C1
1.48 µM,3.3,4.93 µM,–,–,–,–,CC(=O)n1ncc2c1C(C)(C)[C@@H]1CC[C@]3(C)[C@H](CC=C4[C@@H]5CC(C)(C)CC[C@]5(C(=O)O)CC[C@]43C)[C@@]1(C)C2
2.61 µM,2.5,6.5 µM,–,–,–,–,Cc1ncc2c(n1)C(C)(C)[C@@H]1CC[C@]3(C)[C@H](CC=C4[C@@H]5CC(C)(C)CC[C@]5(C(=O)O)CC[C@]43C)[C@@]1(C)C2
1.79 µM,4.6,8.31 µM,> 40 µM,> 40 µM,> 40 µM,–,CC1(C)CC[C@]2(C(=O)O)CC[C@]3(C)C(=CC[C@@H]4[C@@]5(C)Cc6nccnc6C(C)(C)[C@@H]5CC[C@]43C)[C@@H]2C1
2.6 µM,3.3,8.44 µM,> 40 µM,> 40 µM,> 40 µM,–,CC1(C)CC[C@]2(C(=O)O)CC[C@]3(C)C(=CC[C@@H]4[C@@]5(C)Cc6cnoc6C(C)(C)[C@@H]5CC[C@]43C)[C@@H]2C1
4.93 µM,–,–,–,–,–,–,CC1(C)CC[C@]2(C(=O)O)CC[C@]3(C)C(=CC[C@@H]4[C@@]5(C)C[C@H](O)[C@H](O)C(C)(C)[C@@H]5CC[C@]43C)[C@@H]2C1 [AUGUSTIC ACID]
5.44 µM,–,–,–,–,–,–,CNc1ncc2c(n1)C(C)(C)[C@@H]1CC[C@]3(C)[C@H](CC=C4[C@@H]5CC(C)(C)CC[C@]5(C(=O)O)CC[C@]43C)[C@@]1(C)C2
2.73 µM,3,8.19 µM,> 40 µM,> 40 µM,> 40 µM,–,CC1(C)CC[C@]2(C(=O)O)CC[C@]3(C)C(=CC[C@@H]4[C@@]5(C)Cc6cncnc6C(C)(C)[C@@H]5CC[C@]43C)[C@@H]2C1
